Literature values, collected in paper PMC6237330, “Bioactivity of selected materials for coffee substitute” (PLoS ONE, 2018).

Assays:
[1] = test system: animals; design: method as in earlier work; details: in the laboratory
[2] = test system: mice; design: method as in PMID 20237914; details: 2 mg furan/kg bwt

| SMILES | Tumors in animals [1] | Tumor induction [2] |
| --- | --- | --- |
| C=CC(N)=O [ACR, acrylamide] | causes tumors in animals |  |
| c1ccoc1 [furan] |  | may induce tumor |
